The results in this text go back to patent publication US11661431B2, “Thienopyrrole compounds” (Gilead Sciences, Inc., priority 2021, dated 2023).

pEC50: −log10 of the molar value.

For assay [1], the target named is TLR7 (Homo sapiens (Human), UniProt Q9NYK1). The assay can be described thus: TLR7 human peripheral blood mononuclear cell (PBMC) cell-based assay (GS-986 as agonist; IL-6 and IFNα readout). The settings on record: human PBMCs, TLR7 agonist GS-986 at 400 nM, 6 hours, antagonist potency; read-out: TLR-7 EC50. Put shortly: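 IL-6 and IFNα released into supernatant were quantified by electrochemiluminescence immunoassay. Before that, human PBMCs at 100,000 per well received a 10-point antagonist titration for 1 h, then TLR7 agonist for 6 more hours, all at 37 °C, 5% CO2.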
Chain of TLR7 (Q9NYK1 27-1049): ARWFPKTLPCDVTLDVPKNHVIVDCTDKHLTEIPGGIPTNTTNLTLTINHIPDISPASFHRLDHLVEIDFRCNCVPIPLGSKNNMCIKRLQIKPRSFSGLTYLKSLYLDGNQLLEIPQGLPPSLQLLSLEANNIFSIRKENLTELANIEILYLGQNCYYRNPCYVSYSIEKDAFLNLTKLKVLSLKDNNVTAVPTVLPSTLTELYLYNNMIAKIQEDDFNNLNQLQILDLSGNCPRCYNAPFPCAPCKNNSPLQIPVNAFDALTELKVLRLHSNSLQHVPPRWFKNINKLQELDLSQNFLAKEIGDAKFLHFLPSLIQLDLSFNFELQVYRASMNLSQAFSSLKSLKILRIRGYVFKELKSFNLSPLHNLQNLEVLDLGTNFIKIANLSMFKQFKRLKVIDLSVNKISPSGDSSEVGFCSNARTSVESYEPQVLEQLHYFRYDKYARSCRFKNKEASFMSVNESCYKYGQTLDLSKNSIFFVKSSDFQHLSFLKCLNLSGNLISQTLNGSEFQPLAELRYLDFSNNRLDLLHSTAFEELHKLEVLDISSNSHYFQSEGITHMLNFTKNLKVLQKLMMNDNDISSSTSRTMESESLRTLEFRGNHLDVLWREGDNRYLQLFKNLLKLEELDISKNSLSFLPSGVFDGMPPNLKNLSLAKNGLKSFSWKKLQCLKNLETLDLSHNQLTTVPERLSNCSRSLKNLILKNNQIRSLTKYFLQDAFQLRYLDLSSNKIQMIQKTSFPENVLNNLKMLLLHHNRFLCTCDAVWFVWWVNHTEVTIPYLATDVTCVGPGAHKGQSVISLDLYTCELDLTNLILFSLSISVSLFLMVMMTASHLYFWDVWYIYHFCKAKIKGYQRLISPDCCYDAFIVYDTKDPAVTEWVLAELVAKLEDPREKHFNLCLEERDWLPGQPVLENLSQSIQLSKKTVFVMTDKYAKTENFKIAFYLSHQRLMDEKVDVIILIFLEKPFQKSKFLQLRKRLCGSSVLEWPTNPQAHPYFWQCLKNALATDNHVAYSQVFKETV

Assay [2] addresses TLR8 (Homo sapiens (Human), UniProt Q9NR97). The assay can be described thus: TLR8 human peripheral blood mononuclear cell (PBMC) cell-based assay (Compound A as agonist; TNFα and IL12p40 readout). The settings on record: human PBMCs, TLR8 agonist Compound A at 800 nM, 6 hours, antagonist potency; read-out: TLR-8 EC50.

Chain of TLR8 (Q9NR97 27-1041): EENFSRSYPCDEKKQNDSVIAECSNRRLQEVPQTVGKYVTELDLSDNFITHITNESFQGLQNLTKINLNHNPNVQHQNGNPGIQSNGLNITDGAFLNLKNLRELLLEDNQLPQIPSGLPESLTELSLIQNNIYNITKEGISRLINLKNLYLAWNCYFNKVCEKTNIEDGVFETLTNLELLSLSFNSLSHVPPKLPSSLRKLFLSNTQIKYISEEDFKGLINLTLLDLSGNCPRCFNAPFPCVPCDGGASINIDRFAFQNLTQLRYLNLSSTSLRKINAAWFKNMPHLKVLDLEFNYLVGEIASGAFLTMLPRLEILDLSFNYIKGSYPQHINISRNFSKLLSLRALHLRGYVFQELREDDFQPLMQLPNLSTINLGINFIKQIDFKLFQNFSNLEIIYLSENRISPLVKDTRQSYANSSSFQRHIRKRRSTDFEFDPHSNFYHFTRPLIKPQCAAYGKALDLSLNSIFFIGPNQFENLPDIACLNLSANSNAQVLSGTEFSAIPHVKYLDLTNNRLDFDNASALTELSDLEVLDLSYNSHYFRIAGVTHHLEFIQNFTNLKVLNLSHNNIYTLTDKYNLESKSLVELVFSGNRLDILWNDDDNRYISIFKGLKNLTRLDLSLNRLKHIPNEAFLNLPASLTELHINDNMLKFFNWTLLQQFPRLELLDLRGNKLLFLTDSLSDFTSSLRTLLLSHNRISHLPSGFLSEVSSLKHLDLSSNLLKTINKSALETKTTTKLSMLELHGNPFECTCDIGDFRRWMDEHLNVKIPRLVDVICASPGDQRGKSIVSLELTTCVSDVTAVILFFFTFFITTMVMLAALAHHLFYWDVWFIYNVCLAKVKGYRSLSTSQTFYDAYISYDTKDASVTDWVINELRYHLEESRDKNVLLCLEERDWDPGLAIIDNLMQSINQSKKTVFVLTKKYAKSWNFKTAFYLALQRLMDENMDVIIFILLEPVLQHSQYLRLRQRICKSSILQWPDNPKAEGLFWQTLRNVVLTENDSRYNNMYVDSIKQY

For `Cc1c(C2CCC3(CC2)CN(CC(N)=O)C3)sc2[nH]c(-c3cc(C)c4ncnn4c3)c(C(C)C)c12` [Example 25], the negative logarithm of the EC50 (pEC50) is 9.96 in assay [1] and 8.53 in assay [2].

As for `Cc1cc(-c2[nH]c3sc(C4CCN(CC(N)=O)CC4)cc3c2C(C)C)cn2ncnc12` [Example 26], the pEC50 is 9.17 in assay [1] and 8.79 in assay [2].

For the compound `Cc1c(C2CCN(C(C)C(N)=O)CC2)sc2[nH]c(-c3cc(C)c4ncnn4c3)c(C(C)C)c12` (centres unmarked) [Example 27], the figures for the pEC50 in assay [1] and in assay [2] were 9.60 and 8.07, respectively.

`CNC(=O)CN1CCC(c2sc3[nH]c(-c4cc(C)c5ncnn5c4)c(C(C)C)c3c2C)CC1` [Example 28]: the values for the negative logarithm of the EC50 (pEC50) in assay [1] and in assay [2] were 8.97 and 7.71, respectively.

Consider `Cc1c(C2CC3(C2)CN(CC(N)=O)C3)sc2[nH]c(-c3cc(C)c4ncnn4c3)c(C(C)C)c12` [Example 29], for which the pEC50 in assay [1] was 9.03; in assay [2], 9.68.

Consider `Cc1c(C2CC3COCC(C2)N3CC(N)=O)sc2[nH]c(-c3cc(C)c4ncnn4c3)c(C(C)C)c12` (centres unmarked) [Example 30], for which the values for the negative logarithm of the EC50 (pEC50) in assay [1] and in assay [2] were 8.47 and 6.59, respectively.

Turning to `Cc1c(-c2[nH]c3sc(C4CC5(C4)CN(CC(N)=O)C5)c(C)c3c2C(C)C)cn2ncnc2c1C` [Example 31], the pEC50 in assay [1] is 8.50; in assay [2] it was 10.30.

As for `Cc1c(C2CCN(C(=O)N3CCNCC3)CC2)sc2[nH]c(-c3cc(C)c4ncnn4c3)c(C(C)C)c12` [Example 32], the negative logarithm of the EC50 (pEC50) in assay [1] is 10.30; in assay [2], 8.08.

Take `Cc1c(C2CC3COCC(C2)N3CCO)sc2[nH]c(-c3cc(C)c4ncnn4c3)c(C(C)C)c12` (centres unmarked) [Example 33]: the results for the pEC50 in assay [1] and in assay [2] were 8.14 and 7.34, respectively.

For `Cc1c(C2CCN(C(=O)CN3CCCC3)CC2)sc2[nH]c(-c3cc(C)c4ncnn4c3)c(C(C)C)c12` [Example 34], the pEC50 in assay [1] was 10.22; in assay [2], 8.35.

For `Cc1c(C2CCN(C(=O)[C@H]3COCCN3)CC2)sc2[nH]c(-c3cc(C)c4ncnn4c3)c(C(C)C)c12` [Example 35], the results for the negative logarithm of the EC50 (pEC50) in assay [1] and in assay [2] were 10.00 and 7.89, respectively.

For `Cc1c(C2CCN(C(=O)[C@@H]3COCCN3)CC2)sc2[nH]c(-c3cc(C)c4ncnn4c3)c(C(C)C)c12` [Example 36], the figures for the negative-log EC50 (pEC50) in assay [1] and in assay [2] were 9.27 and 7.68, respectively.

Turning to `Cc1c(C2CCC3(CC2)CN(C(=O)[C@@H]2CCCN2)C3)sc2[nH]c(-c3cc(C)c4ncnn4c3)c(C(C)C)c12` [Example 37], the pEC50 in assay [1] was 9.70; in assay [2] it was 8.00.

Take `Cc1c(C2CCC3(CC2)CN(C(=O)[C@H]2CCCN2)C3)sc2[nH]c(-c3cc(C)c4ncnn4c3)c(C(C)C)c12` [Example 38]: the pEC50 in assay [1] is 9.66; in assay [2], 7.98.

For `Cc1c(C2CCN(C(=O)[C@H]3CC(F)(F)CN3)CC2)sc2[nH]c(-c3cc(C)c4ncnn4c3)c(C(C)C)c12` [Example 39], the pEC50 in assay [1] was 8.93; in assay [2], 6.90.

With `Cc1c(C2CCN(C(=O)C34CC(CN3)C4)CC2)sc2[nH]c(-c3cc(C)c4ncnn4c3)c(C(C)C)c12` [Example 40], the pEC50 in assay [1] is 10.15; in assay [2], 8.50.

For the compound `Cc1c(C2CCN(C(=O)C34CC(F)(CN3)C4)CC2)sc2[nH]c(-c3cc(C)c4ncnn4c3)c(C(C)C)c12` [Example 41], the values for the pEC50 in assay [1] and in assay [2] were 9.46 and 7.91, respectively.

As for `Cc1c(C2CCN(C(=O)[C@H]3C[C@@H](F)CN3)CC2)sc2[nH]c(-c3cc(C)c4ncnn4c3)c(C(C)C)c12` [Example 42], the pEC50 in assay [1] is 9.11; in assay [2], 7.59.

As for `Cc1c(C2CCN(C(=O)[C@H]3C[C@H](F)CN3)CC2)sc2[nH]c(-c3cc(C)c4ncnn4c3)c(C(C)C)c12` [Example 43], the pEC50 was 9.49 in assay [1] and 7.72 in assay [2].

Turning to `CO[C@H]1CN[C@@H](C(=O)N2CCC(c3sc4[nH]c(-c5cc(C)c6ncnn6c5)c(C(C)C)c4c3C)CC2)C1` [Example 44], the figures for the pEC50 in assay [1] and in assay [2] were 9.43 and 7.88, respectively.

As to `CO[C@@H]1CN[C@@H](C(=O)N2CCC(c3sc4[nH]c(-c5cc(C)c6ncnn6c5)c(C(C)C)c4c3C)CC2)C1` [Example 45], the pEC50 in assay [1] is 9.89; in assay [2] it was 7.81.

As for `Cc1c(C2CCN(C(=O)[C@H]3CNCCO3)CC2)sc2[nH]c(-c3cc(C)c4ncnn4c3)c(C(C)C)c12` [Example 46], the pEC50 was 9.23 in assay [1] and 7.88 in assay [2].

Turning to `Cc1c(C2CCN(C(=O)[C@@H]3CNCCO3)CC2)sc2[nH]c(-c3cc(C)c4ncnn4c3)c(C(C)C)c12` [Example 47], the negative logarithm of the EC50 (pEC50) in assay [1] was 9.62; in assay [2], 7.85.

`Cc1c(C2CCN(C(=O)[C@H]3COCCN3C)CC2)sc2[nH]c(-c3cc(C)c4ncnn4c3)c(C(C)C)c12` [Example 48]: the pEC50 was 9.54 in assay [1] and 7.71 in assay [2].

As to `Cc1c(C2CCN(C(=O)[C@@H]3COCCN3C)CC2)sc2[nH]c(-c3cc(C)c4ncnn4c3)c(C(C)C)c12` [Example 49], the pEC50 in assay [1] is 8.95; in assay [2], 7.55.

Turning to `Cc1c(C2CCN(C(=O)CN3CCOCC3)CC2)sc2[nH]c(-c3cc(C)c4ncnn4c3)c(C(C)C)c12` [Example 50], the pEC50 was 8.75 in assay [1] and 7.44 in assay [2].

As to `Cc1c(C2CCN(C(=O)C3(C)COCCN3)CC2)sc2[nH]c(-c3cc(C)c4ncnn4c3)c(C(C)C)c12` (centres unmarked) [Example 51], the pEC50 in assay [1] was 9.37; in assay [2], 7.71.

With `Cc1c(-c2[nH]c3sc(C4CC5(C4)CN(C(=O)[C@H]4COCCN4)C5)c(C)c3c2C(C)C)cn2ncnc2c1C` [Example 52], the pEC50 in assay [1] was 8.68; in assay [2], 8.95.

For the compound `Cc1c(C2CC3(C2)CN(C(=O)[C@H]2COCCN2)C3)sc2[nH]c(-c3cc(C)c4ncnn4c3)c(C(C)C)c12` [Example 53], the pEC50 in assay [1] was 9.57; in assay [2] it was 8.62.

For the compound `Cc1c(C2CCN(C(=O)C3COCC(C)(C)N3)CC2)sc2[nH]c(-c3cc(C)c4ncnn4c3)c(C(C)C)c12` (centres unmarked) [Example 54], the pEC50 in assay [1] was 9.23; in assay [2] it was 7.70.

With `Cc1c(C2CCN(C(=O)C34COC(CN3)C4)CC2)sc2[nH]c(-c3cc(C)c4ncnn4c3)c(C(C)C)c12` (centres unmarked) [Example 55], the pEC50 in assay [1] was 9.64; in assay [2] it was 7.78.

Take `Cc1cc(-c2[nH]c3sc(C4CCN(C(=O)[C@H]5COCCN5)CC4)cc3c2C(C)C)cn2ncnc12` [Example 57]: the pEC50 in assay [1] is 9.57; in assay [2] it was 7.81.

In the case of `Cc1c(C2CC3(CNC3)C2)sc2[nH]c(-c3cc(C)c4ncnn4c3)c(C(C)C)c12` [Example 58, 4-isopropyl-3-methyl-5-(8-methyl-[1,2,4]triazolo[1,5-a]pyridin-6-yl)-2-(2-azaspiro[3.3]heptan-6-yl)-6H-thieno[2,3-b]pyrrole], the negative-log EC50 (pEC50) was 9.62 in assay [1] and 8.76 in assay [2].

For the compound `Cc1c(C2CC3COCC(C2)N3)sc2[nH]c(-c3cc(C)c4ncnn4c3)c(C(C)C)c12` (centres unmarked) [Example 59], the pEC50 in assay [1] was 8.53; in assay [2] it was 7.55.

For the compound `Cc1c(-c2[nH]c3sc(C4CC5(CNC5)C4)c(C)c3c2C(C)C)cn2ncnc2c1C` [Example 60], the pEC50 in assay [1] is 8.74; in assay [2], 9.03.

`Cc1c(C2CCC3(CNC3)C2)sc2[nH]c(-c3cc(C)c4ncnn4c3)c(C(C)C)c12` (centres unmarked) [Example 61]: the results for the negative logarithm of the EC50 (pEC50) in assay [1] and in assay [2] were 9.72 and 8.04, respectively.

In the case of `Cc1c(C2CC3CCC(C2)N3CC(N)=O)sc2[nH]c(-c3cc(C)c4ncnn4c3)c(C(C)C)c12` (centres unmarked) [Example 62, 2-(3-(4-isopropyl-3-methyl-5-(8-methyl-[1,2,4]triazolo[1,5-a]pyridin-6-yl)-6H-thieno[2,3-b]pyrrol-2-yl)-8-azabicyclo[3.2.1]octan-8-yl)acetamide], the negative logarithm of the EC50 (pEC50) was 9.72 in assay [1] and 8.14 in assay [2].

For the compound `Cc1c(C2C3CCC2CN(CC(N)=O)C3)sc2[nH]c(-c3cc(C)c4ncnn4c3)c(C(C)C)c12` (centres unmarked) [Example 63], the figures for the pEC50 in assay [1] and in assay [2] were 9.59 and 7.56, respectively.

As to `Cc1c(C2CN(CC(N)=O)C2)sc2[nH]c(-c3cc(C)c4ncnn4c3)c(C(C)C)c12` [Example 64], the pEC50 in assay [1] is 8.51; in assay [2], 8.02.

Regarding `Cc1c(C2C3CC2CN(CC(N)=O)C3)sc2[nH]c(-c3cc(C)c4ncnn4c3)c(C(C)C)c12` (centres unmarked) [Example 65], the pEC50 in assay [1] was 7.55; in assay [2], 7.48.

As for `Cc1c(C2C[C@@H]3C[C@H]2CN3CC(N)=O)sc2[nH]c(-c3cc(C)c4ncnn4c3)c(C(C)C)c12` (some centres unmarked) [Example 66], the pEC50 in assay [1] was 9.92; in assay [2] it was 9.80.

With `Cc1c([C@H]2C[C@@H]3CN(CC(N)=O)C[C@@H]3C2)sc2[nH]c(-c3cc(C)c4ncnn4c3)c(C(C)C)c12` [Example 70, 2-((3aR,6aS)-5-(4-isopropyl-3-methyl-5-(8-methyl-[1,2,4]triazolo[1,5-a]pyridin-6-yl)-6H-thieno[2,3-b]pyrrol-2-yl)hexahydrocyclopenta[c]pyrrol-2(1H)-yl)acetamide], the pEC50 in assay [1] was 10.30; in assay [2], 8.23.

Regarding `Cc1c([C@@H]2C[C@@H]3CN(CC(N)=O)C[C@@H]3C2)sc2[nH]c(-c3cc(C)c4ncnn4c3)c(C(C)C)c12` [Example 71, 2-((3aR,6aS)-5-(4-isopropyl-3-methyl-5-(8-methyl-[1,2,4]triazolo[1,5-a]pyridin-6-yl)-6H-thieno[2,3-b]pyrrol-2-yl)hexahydrocyclopenta[c]pyrrol-2(1H)-yl)acetamide], the negative-log EC50 (pEC50) in assay [1] was 9.35; in assay [2], 8.11.
